Publication PMC12261321, “Inhibitors of the Bacterioferritin Ferredoxin Complex Dysregulate Iron Homeostasis and Kill and Biofilm-Embedded Cells” (ACS Infectious Diseases, 2025)
≈ marks a conversion by molar mass, not a printed value.

Experiments:
[1] = Determination of compound aqueous solubility in M63 media; type: physicochemical; conditions: in M63 media at 35 °C
Description: Determination of Compound Aqueous Solubility. Compound stocks (100 mM in DMSO) were prepared from […]
powder and then further diluted with DMSO to prepare 20 mM working solutions, which were diluted as needed […]
in DMSO. 15 µL o f the DMSO solution was then d iluted to a final volume o f 1.0 mL in M63 media. Six solutions […]
were prepared for each compound, each with a distinct concentration and 1.5% DMSO (v/v). 700 µL of each […]
compound solution was transferred to a polystyrene 48-well plate (VWR), followed by acquisition of UV-vis […]
spectra (300 to 700 nm) with the aid of an Epoch 2 microplate reader (B i o Te k ). […]
Following the acquisition of UV-vis spectra, each of the wells in the plate was inspected under a […]
microscope for evidence of precipitation. Evidence of precipitation at any given concentration was determined by observing a shift in the baseline of the UV-vis spectra relative to the blank (M63 media) and/or evidence of visual precipitation with the aid of a micros cope. […]

A. baumannii 5075 [2] = experiment: Checkerboard assay; type: cell-based; conditions: 5075; for MIC: Acinetobacter baumannii; for Interaction of the antibiotic with KM-5–25: checkerboard
Description: To carry out the serial dilution from the highest compound concentration, a 150 μ L solution of higher concentration compound or antibiotic was mixed with 150 μ L of cell suspension containing […] Th e 96 well plate was in cubated for 20 hat 35 °C with continuous orbital shaking (205 cpm) in an Epoch2 microplate reader (BioTek), monitoring the growth by following the OD600. […] All assays were p erfo rmed in three biological replicates, each with three […] replicates. Checkerboard Assay. […] CFU/mL. […] in the vertical and hori zontal direction, respectivel y. Bacterial suspensions were […] escrib ed above fo r the MIC determination and added to the plates. […] The 96-well […] cubated for 20 h at 35 °C with continuous orbital shaking (205 cpm) in an Epoch2 microplate reader (BioTek), monitoring the growth by following the OD600. The MIC values of inhibitor and antibiotic were obtained from the corresponding row or column which contained only one component, whereas the remaining rows and columns were utilized for calculating the fractional inhibitory concentration index (FIC) with the aid of equation […] = […]2 Time Kill Assays. Time-kill assays were performed with A. baumannii 507 5 by the broth macro- dilution method […] An overnight culture was diluted to approximately 5 x10^5 CFU/mL in fresh […] media. […] DMSO, or by the addition of antibiotic dissolved in water and a small volume of DMSO to produce the desired S7

[3] = Stability in aqueous solution; type: physicochemical
recombinant Pa BfrB = molecular target: T1, recombinant Pa BfrB (Pseudomonas aeruginosa, UniProt Q9HY79); experiment: Dissociation constant (Kd), fluorescence quenching titration of apo Pa BfrB; type: binding, P. aeruginosa
T1 construct: made in house; host or cells: E. coli
T1 sequence (Q9HY79 whole entry): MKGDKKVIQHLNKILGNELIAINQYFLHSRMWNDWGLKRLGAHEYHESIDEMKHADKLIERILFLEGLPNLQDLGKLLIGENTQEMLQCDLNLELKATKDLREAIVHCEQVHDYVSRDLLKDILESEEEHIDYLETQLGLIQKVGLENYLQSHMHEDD
Description: Measurement of Dissociation Constant (Kd) R ecombinant Pa BfrB was expressed in E. coli and purified as previously reported.19 Apo-BfrB (devoid of heme) was utilized for the measurements to prevent heme-driven fluorescence quenching. A 0.5 mL solution contai ning 0.01 µM apo Pa-BfrB in PBS (pH = 7.4) containing0.5% DMSO was plac ed into a 1 cm quartz cuvette wh ere it was titrated with aliq uots of compound dissolved in a 50% (v/v) PBS/DMSO solution. The fluorescence quenching brought by the addition of each aliquot was monitored with the aid of an Agilent Cary Fluorometer , with excitation at 280 nm, emission at 320- 470 nm, 10 x10 nm slit width, and an average of 5 scans per spectrum. Th e binding assay included at least 8 aliquots spanning from ~ 0.1 […]
A control titration was carried out by titrati ng compound into PBS buffer. The Kd was cal culated by fitting the data to equation S4, w here Fb is the fraction bound and Fmax is the fraction bound at saturating compound concentration.
FFbb = FFmmmmmm ? [ccccmmccccccmmcc ]? (S4) […]

P. aeruginosa PAO1 = experiment: Half maximal inhibitory concentration (IC50), planktonic growth (CFU/mL); type: cell-based; conditions: M63 media, 18 h
Description: Measurement of Half Maximal Inhibitory Concentration (IC50). IC50 values were determined as reported earlier13 with some modifications. Compound stock solutions in DMSO (100 mM and 10 mM) were prepared from powd er. To prep are the cell susp ensions utilized in the measu rements, starter cultures o f P. aeru ginosa wer e diluted to an optical density at 600 nm (OD600) = 0.005 in fresh LB media (5 mL) and then cultured at 37°C and 220 rpm for 4 h prior to diluting to an OD600 = 0.0001 in M63. A small volume of compound stock solution w as further diluted in DMSO to 30 µL and then diluted in M63 cell suspension to a final volume of 2.0 mL. The resultant solution was placed in a well of a 96-well plate and then serially 2-fold diluted in M63 cell suspension to produce 6 distinct com pound concent rations, each with 1.5% DMSO. Th e plate was co ver ed and incubated for 18 h at 35 °C in a Synergy H1 plate reader (Biotek). The resultant cell cultures were serially diluted in PBS and then plated on PI Agar plates (PIA; BD biosciences) for counting viable cells (CFU/mL). The % growth was calculated from the ratio CFU/mL(t reat ed )/CFU/mL(untreated control). To calculate the IC50 values, the % growth was plotted as a function of compound concentration expressed as log[compound] ( µM), and fitted to equation S1 describing the sigmoid- shaped response pattern, 14 where b is the slope factor, max is the upper asymptote (plateau), and min is the lower asymptote. IC 50 values are the average and standard deviation from three independent experiments , each conducted with thr ee techni cal replicates.

A. baumannii 5075 [4] = experiment: MIC, broth microdilution in M63 media; type: cell-based
Description: (§1) Measurement of Minimum Inhibitory Concentrations (MIC). The MIC of compounds and select ed antibiotics against three strains of A. baumannii (5075, ATCC 17988, and ATCC 19606) were determined via the broth microdilution method according to Clinical and Laboratory Standard Instit ute (CLSI) guidelines,15 but culturing […]
(§2) To establish a 2-fold dilution series of compound, 985 μ L of diluted cells was mixed with 15 μ L of compound […]
(§3) dissolved in DMSO, such that the resultant solution had the highest concentration of compound or antibiotic tested and 1.5% DMSO. To carry out the serial dilution from the highest compound concentration, a 150 μ L solution of higher concentration compound or antibiotic was mixed with 150 μ L of cell suspension containing 1.5% DMSO in the wells of a 96 well plate.
(§4) Th e 96 well plate was in cubated for 20 hat 35 °C with continuous orbital shaking (205 cpm) in an Epoch2 microplate reader (BioTek), monitoring the growth by […]
(§5) following the OD600. […]
(§6) FFFFFF = MMMMMMAA iiii ccllccbbiiiicccciilliiMMMMMMAA+ MMMMMMBB iiii ccllccbbiiiicccciilliiMMMMMMBB S2 Time Kill Assays. Time-kill assays were performed with A. baumannii 507 5 by the broth macro- dilution method in M63- medium containing 1.5% DMSO. An overnight culture was diluted to approximately 5 x10^5 CFU/mL in fresh M63 media. The test solutions were prepared by adding compound (KM-5- 35, or KM-5- 25) dissolved in DMSO to 5 mL of diluted cell suspension to yield a solution of the desired compound concentration and 1.5% DMSO, or by the addition of antibiotic dissolved in water and a small volume of DMSO to produce the desired

A. baumannii ATCC 19606 = experiment: MIC, broth microdilution in M63 media; type: cell-based
Description: as §1, §2, §3, §4, §5, §6

A. baumannii ATCC 17978 = experiment: MIC, broth microdilution in M63 media; type: cell-based
Description: as §1, §2, §3, §4, §5, §6

Pa Bfr = conditions: earlier work, reference number not given; read-out: Kd of Pa Bfd binding to Pa Bfr; cited from earlier work
[5] = agent alone, KM-5–35 14 μg/mL = 40 μM

## O=C1NC(=O)c2c(NCc3cc(O)c(Br)cc3O)cccc21 [SB-16-186]
[1]
  Solubility: Unstable

## O=C1NC(=O)c2c(NCc3cccc4c3CCO4)cccc21 [SB-17-110]
[1]
  Solubility: Not soluble

## O=C1NC(=O)c2c(NCc3ccc4[nH]ccc4c3)cccc21 [SB-17-16]
[1]
  Solubility: Not soluble

## CC(C)(O/N=C(\C(=O)N[C@@H]1C(=O)N2C(C(=O)[O-])=C(C[n+]3ccccc3)CS[C@H]12)c1csc(N)n1)C(=O)O [ceftazidime, reference compound]
A. baumannii 5075 [2]; [5]
  MIC: 256 µg/mL

## O=C(O)c1cn(C2CC2)c2cc(N3CCNCC3)c(F)cc2c1=O [ciprofloxacin, reference compound]
A. baumannii 5075 [2]; [5]
  MIC: 128 µg/mL

## O=C1NC(=O)c2c(NCc3c(O)cccc3O)cccc21 [BN-16-70]
[3]
  stability in aqueous solution: unstable in aqueous solution
[1]
  Solubility: Unstable

## Cc1cccc(O)c1CNc1cccc2c1C(=O)NC2=O [SB-15-171]
[1]
  Solubility: Unstable

## Cn1ccc2ccc(CNc3cccc4c3C(=O)NC4=O)cc21 [SB-17-114]
[1]
  Solubility: Not soluble

## O=C1NC(=O)c2c(NCc3ccc(O)cc3O)cccc21 [BN-16-69]
[3]
  stability in aqueous solution: unstable in aqueous solution
[1]
  Solubility: Unstable

## Cn1ccnc1CNc1cccc2c1C(=O)NC2=O [SB-17-95]
Recombinant Pa BfrB
  Kd: 57 ± 6 µM
[1]
  solubility at 4 h: 100 µM (≈ 25.6 µg/mL)
P. aeruginosa PAO1; planktonic cells
  IC50, P. aeruginosa PAO1: Not active
A. baumannii 5075 [4]; 20 h
  MIC, A. baumannii 5075: Not active
A. baumannii ATCC 19606; 20 h
  MIC, A. baumannii 19606: Not active
A. baumannii ATCC 17978; 20 h
  MIC, A. baumannii 17978: Not active

## C[C@@H](O)[C@H]1C(=O)N2C(C(=O)O)=C(S[C@@H]3CN[C@H](C(=O)N(C)C)C3)[C@H](C)[C@H]12 [meropenem, reference compound]
A. baumannii 5075 [2]; [5]
  MIC: 2 µg/mL

## C[C@@H](O)[C@H]1C(=O)N2C(C(=O)O)=C(SCCN=CN)C[C@H]12 [imipenem, reference compound]
A. baumannii 5075 [2]; [5]
  MIC: 1 µg/mL
A. baumannii 5075 [2]
  Interaction of the antibiotic with KM-5–25: additive

## O=C1NC(=O)c2c(NCc3cc(O)ccc3O)cccc21 [EB-5-93]
[3]
  stability in aqueous solution: unstable in aqueous solution
[1]
  Solubility: Unstable

## O=C1NC(=O)c2c(NCc3cccc4[nH]ccc34)cccc21 [SB-17-75]
Recombinant Pa BfrB
  Kd: 15 ± 2 µM
[1]; M63 media with 1.5% DMSO, 35 °C, aqueous buffer, kinetic from dmso stock
  solubility at 4 h: 60 µM (≈ 17.5 µg/mL)
P. aeruginosa PAO1; Pseudomonas aeruginosa, PAO1, planktonic cells
  IC50: 32 ± 13 µM
A. baumannii 5075 [4]; Acinetobacter baumannii, 5075, 20 h
  MIC: 30 µM (≈ 8.74 µg/mL)
A. baumannii ATCC 19606; Acinetobacter baumannii, ATCC19606, 20 h
  MIC: 30 µM (≈ 8.74 µg/mL)
A. baumannii ATCC 17978; Acinetobacter baumannii, ATCC17978, 20 h
  MIC: 60 µM (≈ 17.5 µg/mL)

## Cc1ccc(O)c(CNc2ccc(Br)c3c2C(=O)NC3=O)c1 [SB-16-122]
Recombinant Pa BfrB
  Kd: 5 ± 1 µM
[1]
  solubility at 4 h: 40 µM (≈ 14.4 µg/mL)
P. aeruginosa PAO1; planktonic cells
  IC50: 19 ± 4 µM
A. baumannii 5075 [4]; 20 h
  MIC: 20 µM (≈ 7.22 µg/mL)
A. baumannii ATCC 19606; 20 h
  MIC: 20 µM (≈ 7.22 µg/mL)
A. baumannii ATCC 17978; 20 h
  MIC: 20 µM (≈ 7.22 µg/mL)

## NC[C@H]1O[C@H](O[C@H]2[C@H](O)[C@@H](O[C@H]3O[C@H](CO)[C@@H](O)[C@H](N)[C@H]3O)[C@H](N)C[C@@H]2N)[C@H](N)C[C@@H]1O [tobramycin, reference compound]
A. baumannii 5075 [2]; [5]
  MIC: 512 µg/mL

## O=C1NC(=O)c2c(NCc3ccc4c(c3)CCO4)cccc21 [SB-17-98]
[1]
  Solubility: Not soluble

## O=C1NC(=O)c2c(NCC3CCOCC3)cccc21 [SB-16-237]
Recombinant Pa BfrB
  Kd: 42 ± 10 µM
[1]
  solubility at 4 h: 100 µM (≈ 26 µg/mL)
P. aeruginosa PAO1; planktonic cells
  IC50, P. aeruginosa PAO1: Not active
A. baumannii 5075 [4]; 20 h
  MIC: > 100 µM
A. baumannii ATCC 19606; 20 h
  MIC: > 100 µM
A. baumannii ATCC 17978; 20 h
  MIC: > 100 µM

## colistin [reference compound]
A. baumannii 5075 [2]; [5]
  MIC alone: 1 µg/mL
A. baumannii 5075 [2]
  Interaction of the antibiotic with KM-5–25: synergy

## O=C1NC(=O)c2c(NCc3ccc4occc4c3)cccc21 [SB-17-109]
[1]
  Solubility: Not soluble

B1: Pa Bfd: Bfr associated ferredoxin that binds Pa Bfr (protein, UniProt Q9HY80 1-73, looked up)
Bacterioferritin-associated …: MYVCLCQGVTDNQIRDAIYEGCCSYREVREATGVGTQCGKCACLAKQVVRETLNDLQSAQPVPAFGTTAFVAA
Pa Bfr
  Kd: 4.7 µM
